Measurements as given in PMC10374545, “A small molecule inhibitor of PTP1B and PTPN2 enhances T cell anti-tumor immunity” (Nature Communications, 2023).

Columns and labels:
Assay in all cases: PTP selectivity, DiFMUP assay
Assay type in all cases: biochemical
Conditions in all cases: DiFMUP at Km
[1] = target: T1, CD45 (Homo sapiens, UniProt P08575)
T1 construct: CD45, residues 620-1236; made in house; host or cells: E. coli BL21(DE3)
Protocol: (§1) E. coli BL21(DE3) (Novagen) was used as an expression host and the induction of protein expression was carried out in LB media with 1 mM IPTG at 18 °C overnight. Cell pellets were stored at −80 °C for subsequent protein purification.
(§2) Protein purification of PTPs for enzymatic assays was conducted at 4 °C. Frozen cell pellets were lysed by sonication in 40 ml cold lysis buffer (50 mM Tris-HCl, pH 8.0, 150 mM NaCl, 5 mM imidazole, and 1 mM PMSF) per litre cell pellet. Cell lysates were clarified by centrifugation using a Beckman JA-18 rotor for 15 min at 5308 x g. The supernatant was incubated with HisPur Ni-NTA resin (Thermo Scientific) for 2 h and then packed onto a column and washed with 50 resin volume of buffer A (50 mM Tris-HCl, pH 8.0, 500 mM NaCl, 5 mM imidazole). The His-tagged proteins were eluted with Buffer B (50 mM Tris-HCl, pH=8.0, 500 mM NaCl, 300 mM imidazole,). Pooled His-protein-containing fractions were concentrated, loaded onto a HiLoad 26/600 Superdex 75 column (GE Healthcare Biosciences) and eluted with storage buffer (50 mM Tris-HCl, pH 8.0, 150 mM NaCl, 1 mM DTT, 10% glycerol). […] The protein was aliquoted and stored at −80 °C.
(§3) The PTP kinetic assay was modified from previous reported protocols[73],[74]. PTP activity was assayed using 6,8-Difluoro-4-Methylumbelliferyl Phosphate (DiFMUP, Invitrogen, cat# D6567,) as a substrate in 3,3-Dimethylglutaric acid (DMG) buffer (50 mM DMG, pH 7.0, 1 mM EDTA, 18 mM NaCl, 0.01% Triton X-100) at 25 °C. To determine the IC50 values, the assays were performed in 96-well plates (Corning Costar 3915). […] The final reaction volume is 200 µl. The reaction was allowed to proceed for 10 min and then quenched by the addition of 40 µl of a 160 µM solution of bpV(Phen) (Sigma-Aldrich, cat# SML0889). The fluorescence signal was measured using a CLARIOstar Plus Microplate Spectrophotometer (BMG Labtech) using excitation and emission wavelengths of 340 nm and 450 nm, respectively. Data were fitted using Prism GraphPad 9.2.0.
(§4) To determine the mode of inhibition, the reactions were initiated by the addition of enzyme (final concentration for PTP1B and PTPN2 was 0.05 nM) to the reaction mixtures (0.2 ml) containing various concentrations of DiFMUP with different concentrations of the inhibitor. The reaction was allowed to proceed for 10 min and then quenched by the addition of 40 µl of a 160 µM solution of bpV(Phen) (Sigma-Aldrich, cat# SML0889). The fluorescence signal was measured using a CLARIOstar Plus Microplate Spectrophotometer (BMG Labtech) using excitation and emission wavelength of 340 nm and 450 nm, respectively. Data were fitted using Prism GraphPad 9.2.0. For selectivity studies, the inhibition assay for other PTPs were performed under the same conditions as used for PTP1B and PTPN2 except with different DiFMUP concentration corresponding to the Km of the PTP studied.

[2] = target: T2, CDC14A (Homo sapiens, UniProt Q9UNH5)
T2 construct: CDC14A, residues 1-413; made in house; host or cells: E. coli BL21(DE3)
Protocol: as §1, §2, §3, §4

[3] = target: T3, CDC14B (Homo sapiens, UniProt O60729)
T3 construct: CDC14B, residues 1-411; made in house; host or cells: E. coli BL21(DE3)
Protocol: as §1, §2, §3, §4

[4] = target: T4, FAP-1 (Homo sapiens, UniProt Q12923)
T4 construct: FAP1, residues 2124-2485; made in house; host or cells: E. coli BL21(DE3)
Protocol: as §1, §2, §3, §4

[5] = target: T5, HePTP (Homo sapiens, UniProt P35236)
T5 construct: HePTP, residues 22-360; made in house; host or cells: E. coli BL21(DE3)
Protocol: as §1, §2, §3, §4

[6] = target: T6, LMPTP (Homo sapiens, UniProt P24666)
T6 construct: LMWPTP, residues 1-158; made in house; host or cells: E. coli BL21(DE3)
Protocol: as §1, §2, §3, §4

[7] = target: T7, LYP (Homo sapiens, UniProt Q9Y2R2)
T7 construct: LYP/PTPN22, residues 1-294; made in house; host or cells: E. coli BL21(DE3)
Protocol: as §1, §2, §3, §4

[8] = target: T8, Laforin (Homo sapiens, UniProt O95278)
T8 construct: made in house; host or cells: E. coli BL21(DE3)
Protocol: as §1, §2, §3, §4

[9] = target: T9, MKP5 (Homo sapiens, UniProt Q9Y6W6)
T9 construct: MKP5, residues 320-647; made in house; host or cells: E. coli BL21(DE3)
Protocol: as §1, §2, §3, §4

[10] = target: T10, PTP-PEST (Homo sapiens, UniProt Q05209)
T10 construct: PTP-PEST, residues 5-304; made in house; host or cells: E. coli BL21(DE3)
Protocol: as §1, §2, §3, §4

[11] = target: T11, PTPα (Homo sapiens, UniProt P18433)
T11 construct: PTPα, residues 173-793; made in house; host or cells: E. coli BL21(DE3)
Protocol: as §1, §2, §3, §4

[12] = target: T12, PTPε (Homo sapiens, UniProt P23469)
T12 construct: PTPε, residues 107-697; made in house; host or cells: E. coli BL21(DE3)
Protocol: as §1, §2, §3, §4

[13] = target: T13, SHP-1 (Homo sapiens, UniProt P29350)
T13 construct: SHP-1, residues 245-543; made in house; host or cells: E. coli BL21(DE3)
Protocol: as §1, §2, §3, §4

[14] = target: T14, SHP-2 (Homo sapiens, UniProt Q06124)
T14 construct: SHP-2, residues 224-528; made in house; host or cells: E. coli BL21(DE3)
Protocol: as §1, §2, §3, §4

[15] = target: T15, STEP (Homo sapiens, UniProt P54829)
T15 construct: STEP, residues 258-539; made in house; host or cells: E. coli BL21(DE3)
Protocol: as §1, §2, §3, §4

[16] = target: T16, VHZ (Homo sapiens, UniProt Q9BVJ7)
T16 construct: VHZ, residues 1-150; made in house; host or cells: E. coli BL21(DE3)
Protocol: as §1, §2, §3, §4

T2 sequence (Q9UNH5 1-413): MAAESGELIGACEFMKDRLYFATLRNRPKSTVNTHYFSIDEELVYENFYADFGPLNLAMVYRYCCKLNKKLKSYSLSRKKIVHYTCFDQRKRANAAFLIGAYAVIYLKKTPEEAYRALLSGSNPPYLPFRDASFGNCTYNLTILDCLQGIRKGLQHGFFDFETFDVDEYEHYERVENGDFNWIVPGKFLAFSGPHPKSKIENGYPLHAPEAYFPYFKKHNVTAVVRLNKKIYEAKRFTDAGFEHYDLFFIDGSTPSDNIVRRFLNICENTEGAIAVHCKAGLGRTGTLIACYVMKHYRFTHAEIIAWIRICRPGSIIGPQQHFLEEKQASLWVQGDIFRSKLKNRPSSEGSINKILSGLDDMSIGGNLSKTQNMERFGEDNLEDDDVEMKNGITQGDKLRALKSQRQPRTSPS
T16 sequence (Q9BVJ7 whole entry, the tested form may be a part): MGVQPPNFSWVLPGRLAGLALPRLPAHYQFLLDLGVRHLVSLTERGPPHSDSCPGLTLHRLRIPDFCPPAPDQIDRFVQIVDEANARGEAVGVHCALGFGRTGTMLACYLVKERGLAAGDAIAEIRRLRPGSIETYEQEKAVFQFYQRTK
T4 sequence (Q12923 2124-2485): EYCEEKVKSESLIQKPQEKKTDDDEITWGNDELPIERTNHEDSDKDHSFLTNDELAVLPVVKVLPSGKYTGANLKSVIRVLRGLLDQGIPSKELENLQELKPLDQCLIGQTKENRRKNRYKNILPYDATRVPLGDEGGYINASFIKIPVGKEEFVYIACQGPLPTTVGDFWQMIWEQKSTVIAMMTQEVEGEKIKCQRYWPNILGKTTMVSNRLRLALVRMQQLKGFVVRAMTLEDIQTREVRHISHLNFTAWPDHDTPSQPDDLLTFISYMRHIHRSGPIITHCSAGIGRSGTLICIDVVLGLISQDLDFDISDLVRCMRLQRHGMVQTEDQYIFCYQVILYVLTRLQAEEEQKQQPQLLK
T5 sequence (P35236 22-360): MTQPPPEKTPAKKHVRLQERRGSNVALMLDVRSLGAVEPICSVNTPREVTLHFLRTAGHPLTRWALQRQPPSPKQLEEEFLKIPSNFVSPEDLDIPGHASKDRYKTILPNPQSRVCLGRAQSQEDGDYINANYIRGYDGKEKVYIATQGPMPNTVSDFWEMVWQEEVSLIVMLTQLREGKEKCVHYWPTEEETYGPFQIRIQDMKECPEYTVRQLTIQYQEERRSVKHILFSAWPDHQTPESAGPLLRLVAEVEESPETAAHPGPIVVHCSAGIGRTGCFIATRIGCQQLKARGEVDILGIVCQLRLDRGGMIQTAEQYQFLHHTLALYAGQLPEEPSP
T13 sequence (P29350 245-543): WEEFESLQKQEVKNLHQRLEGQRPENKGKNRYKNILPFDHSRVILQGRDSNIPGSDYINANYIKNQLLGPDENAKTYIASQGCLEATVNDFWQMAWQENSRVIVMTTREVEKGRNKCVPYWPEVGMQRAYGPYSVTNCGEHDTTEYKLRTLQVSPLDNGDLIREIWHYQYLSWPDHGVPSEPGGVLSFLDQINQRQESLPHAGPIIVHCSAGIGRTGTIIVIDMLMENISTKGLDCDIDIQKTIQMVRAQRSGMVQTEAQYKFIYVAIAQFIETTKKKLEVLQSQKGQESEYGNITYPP
T3 sequence (O60729 1-411): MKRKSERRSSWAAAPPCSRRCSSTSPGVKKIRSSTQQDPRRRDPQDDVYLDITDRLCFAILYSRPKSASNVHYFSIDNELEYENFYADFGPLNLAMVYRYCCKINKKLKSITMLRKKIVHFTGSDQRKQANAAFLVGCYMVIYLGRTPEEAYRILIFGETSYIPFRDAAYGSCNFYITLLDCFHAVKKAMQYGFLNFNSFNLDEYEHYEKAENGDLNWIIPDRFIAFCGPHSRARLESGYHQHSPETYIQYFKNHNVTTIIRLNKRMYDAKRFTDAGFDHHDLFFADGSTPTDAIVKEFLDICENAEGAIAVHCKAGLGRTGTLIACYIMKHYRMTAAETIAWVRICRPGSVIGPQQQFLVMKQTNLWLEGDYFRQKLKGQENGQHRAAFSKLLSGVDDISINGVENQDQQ
T7 sequence (Q9Y2R2 1-294): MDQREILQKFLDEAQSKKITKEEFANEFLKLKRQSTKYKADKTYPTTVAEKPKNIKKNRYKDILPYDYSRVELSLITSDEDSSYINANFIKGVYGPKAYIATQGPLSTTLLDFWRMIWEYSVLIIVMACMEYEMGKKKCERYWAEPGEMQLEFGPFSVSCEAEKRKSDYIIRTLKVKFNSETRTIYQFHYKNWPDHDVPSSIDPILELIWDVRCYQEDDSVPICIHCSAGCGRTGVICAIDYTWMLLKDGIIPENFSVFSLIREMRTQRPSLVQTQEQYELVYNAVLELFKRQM
T8 sequence (O95278 whole entry): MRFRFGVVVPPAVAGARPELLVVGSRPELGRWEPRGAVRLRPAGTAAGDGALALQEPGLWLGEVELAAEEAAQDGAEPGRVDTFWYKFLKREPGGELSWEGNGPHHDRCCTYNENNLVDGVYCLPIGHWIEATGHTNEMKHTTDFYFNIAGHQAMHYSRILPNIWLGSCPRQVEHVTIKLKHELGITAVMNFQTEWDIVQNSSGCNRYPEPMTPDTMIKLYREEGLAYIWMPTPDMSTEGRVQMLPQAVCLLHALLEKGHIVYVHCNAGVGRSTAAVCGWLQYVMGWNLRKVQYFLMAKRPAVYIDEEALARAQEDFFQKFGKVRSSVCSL
T9 sequence (Q9Y6W6 320-467 limits assumed): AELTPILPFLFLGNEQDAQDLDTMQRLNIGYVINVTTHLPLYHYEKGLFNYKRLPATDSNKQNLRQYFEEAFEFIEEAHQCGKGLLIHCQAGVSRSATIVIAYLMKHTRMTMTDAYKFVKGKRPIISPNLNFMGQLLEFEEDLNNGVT
T12 sequence (P23469 107-697): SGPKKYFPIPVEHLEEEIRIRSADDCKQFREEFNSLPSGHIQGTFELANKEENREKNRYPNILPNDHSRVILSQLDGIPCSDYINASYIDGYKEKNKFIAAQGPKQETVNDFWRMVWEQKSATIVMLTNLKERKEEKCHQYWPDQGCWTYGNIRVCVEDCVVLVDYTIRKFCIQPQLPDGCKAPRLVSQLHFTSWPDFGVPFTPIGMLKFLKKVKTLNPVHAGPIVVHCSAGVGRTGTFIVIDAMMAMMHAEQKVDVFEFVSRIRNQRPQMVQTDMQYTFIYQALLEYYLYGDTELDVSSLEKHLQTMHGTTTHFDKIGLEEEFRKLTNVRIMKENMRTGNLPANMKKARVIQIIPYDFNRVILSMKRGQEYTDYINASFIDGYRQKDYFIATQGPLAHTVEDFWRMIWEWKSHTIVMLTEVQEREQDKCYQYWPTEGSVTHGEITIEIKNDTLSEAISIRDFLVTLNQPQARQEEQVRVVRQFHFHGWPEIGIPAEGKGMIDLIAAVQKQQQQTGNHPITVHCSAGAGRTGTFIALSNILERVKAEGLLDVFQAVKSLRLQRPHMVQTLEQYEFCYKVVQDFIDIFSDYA
T1 sequence (P08575 620-1236): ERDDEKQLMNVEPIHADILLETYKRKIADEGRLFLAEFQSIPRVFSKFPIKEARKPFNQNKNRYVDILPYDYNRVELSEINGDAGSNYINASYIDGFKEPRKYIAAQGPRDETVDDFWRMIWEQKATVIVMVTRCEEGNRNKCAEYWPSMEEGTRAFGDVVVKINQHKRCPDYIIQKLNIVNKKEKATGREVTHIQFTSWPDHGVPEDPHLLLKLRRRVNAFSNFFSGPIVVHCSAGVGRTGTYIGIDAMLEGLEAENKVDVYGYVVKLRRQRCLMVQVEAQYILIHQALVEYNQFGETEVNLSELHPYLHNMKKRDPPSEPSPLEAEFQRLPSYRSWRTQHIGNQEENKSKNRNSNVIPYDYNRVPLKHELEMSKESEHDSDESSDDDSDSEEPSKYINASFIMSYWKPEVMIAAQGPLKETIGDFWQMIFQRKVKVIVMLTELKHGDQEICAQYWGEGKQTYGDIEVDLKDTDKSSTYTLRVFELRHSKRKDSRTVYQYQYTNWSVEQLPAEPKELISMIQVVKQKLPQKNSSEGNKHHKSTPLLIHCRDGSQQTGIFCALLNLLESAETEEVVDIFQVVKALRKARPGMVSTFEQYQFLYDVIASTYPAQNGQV
T15 sequence (P54829 282-563): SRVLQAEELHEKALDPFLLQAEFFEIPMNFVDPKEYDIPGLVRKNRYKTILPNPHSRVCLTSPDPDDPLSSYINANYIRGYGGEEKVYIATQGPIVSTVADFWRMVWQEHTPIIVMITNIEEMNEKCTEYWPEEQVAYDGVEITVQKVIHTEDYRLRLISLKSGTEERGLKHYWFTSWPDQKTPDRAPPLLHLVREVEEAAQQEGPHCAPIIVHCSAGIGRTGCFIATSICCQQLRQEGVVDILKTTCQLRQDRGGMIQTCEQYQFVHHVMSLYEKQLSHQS
T14 sequence (Q06124 224-528): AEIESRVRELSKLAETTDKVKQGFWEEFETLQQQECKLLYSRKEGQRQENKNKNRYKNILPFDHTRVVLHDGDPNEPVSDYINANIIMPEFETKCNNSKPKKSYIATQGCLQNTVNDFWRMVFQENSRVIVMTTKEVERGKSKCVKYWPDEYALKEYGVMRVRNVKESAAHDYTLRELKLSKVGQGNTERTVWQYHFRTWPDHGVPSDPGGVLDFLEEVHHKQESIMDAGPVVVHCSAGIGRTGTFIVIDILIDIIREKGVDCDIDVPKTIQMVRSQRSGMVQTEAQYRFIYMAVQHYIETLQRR
T10 sequence (Q05209 5-304): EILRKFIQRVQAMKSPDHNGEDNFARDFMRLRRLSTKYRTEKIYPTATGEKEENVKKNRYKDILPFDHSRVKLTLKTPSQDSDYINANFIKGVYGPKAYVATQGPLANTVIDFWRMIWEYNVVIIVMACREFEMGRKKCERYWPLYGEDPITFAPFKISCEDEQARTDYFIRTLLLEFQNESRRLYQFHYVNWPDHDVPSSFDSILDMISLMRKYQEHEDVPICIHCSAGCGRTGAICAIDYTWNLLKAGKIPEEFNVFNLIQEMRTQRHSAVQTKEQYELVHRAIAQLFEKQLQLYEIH

With `CC(C)(O)CCOc1ccc2cc(O)c(N3CC(=O)NS3(=O)=O)c(F)c2c1` [Compound 182, 5-(1-Fluoro-3-hydroxy-7-(3-hydroxy-3-methylbutoxy)naphthalen-2-yl)−1,2,5-thiadiazolidin-3-one 1,1-dioxide] the IC50 [1] was over 20 µM, the IC50 [2] was 6.3 ± 0.8 µM and the IC50 [3] was 5.2 ± 1.7 µM. The IC50 [4] was over 20 µM, the IC50 [5] was over 20 µM and the IC50 [6] was over 20 µM. For the same compound, the IC50 [7] was over 20 µM, the IC50 [8] was over 20 µM and the IC50 [9] was over 20 µM. It also gave an IC50 [10] of over 20 µM, an IC50 [11] of over 20 µM and an IC50 [12] of 0.8 ± 0.1 µM. For the same compound, the IC50 [13] was 9.1 ± 0.4 µM, the IC50 [14] was 19.2 ± 1.7 µM and the IC50 [15] was over 20 µM. It also gave an IC50 [16] of over 20 µM.
